Measurements reported in US20220339143A1, “TAK-925 FOR USE IN TREATING NARCOLEPSY” (Takeda Pharmaceutical Company Limited, priority 2019, published 2022).
Like-named read-outs stand apart in the source and are kept apart here.

Assay: Single dose PK in healthy subjects (Cohorts 1, 2, S1 and S2), plasma
Format: in vivo, human
Settings: human, plasma, intravenous
Procedure: This study investigates (i) the safety and tolerability of Compound A (methyl (2R,3S)-3-((methylsulfonyl)amino)-2-(((cis-4-phenylcyclohexyl)oxy)methyl)piperidine-1-carboxylate) when a single dose given as a 9 hour continuous IV infusion is administered to healthy adults, healthy elderly subjects and patients with narcolepsy type 1 (NT1); (ii) the pharmacokinetics of Compound A when a single dose given as a 9 hour continuous IV infusion is administered to healthy adults, healthy elderly subjects and patients with narcolepsy type 1; and (iii) the pharmacodynamics (PD) effects of Compound A, primarily by evaluation of the sleep latency on MWT when a single dose given as a 9 hour continuous IV infusion is administered to patients with narcolepsy type 1.
Pharmacokinetics: Concentrations of Compound A in plasma, and CSF, and pharmacokinetics parameters.
On average, the time to reach the plateau appeared to be approximately 3 to 4 hours after the start of infusion. […] After switching off the IV infusion, Compound A plasma concentrations declined rapidly and in a biphasic manner with a mean terminal disposition phase t1/2z ranging approximately from 3.4 to 5.1 hours across all doses. […] Table 5 provides a summary of plasma concentrations of Compound A after a single IV infusion in healthy subjects. Table 6 provides a summary of pharmacokinetic parameters of Compound A after a single IV infusion in healthy subjects.

[1] = 28 mg, read-out: Plasma concentration, Minimum
[2] = 28 mg, read-out: Plasma concentration, Q1
[3] = 28 mg, read-out: Plasma concentration, Q3
[4] = 28 mg, read-out: Plasma concentration, Maximum
[5] = 28 mg, read-out: Plasma concentration, Mean
[6] = 28 mg, read-out: Plasma concentration, Median
[7] = 56 mg, read-out: Plasma concentration, Maximum
[8] = 56 mg, read-out: Plasma concentration, Mean
[9] = 56 mg, read-out: Plasma concentration, Median
[10] = 56 mg, read-out: Plasma concentration, Minimum
[11] = 56 mg, read-out: Plasma concentration, Q1
[12] = 56 mg, read-out: Plasma concentration, Q3
[13] = 112 mg, read-out: Plasma concentration, Maximum
[14] = 112 mg, read-out: Plasma concentration, Mean
[15] = 112 mg, read-out: Plasma concentration, Median
[16] = 112 mg, read-out: Plasma concentration, Minimum
[17] = 112 mg, read-out: Plasma concentration, Q1
[18] = 112 mg, read-out: Plasma concentration, Q3

COC(=O)N1CCC[C@H](NS(C)(=O)=O)[C@@H]1CO[C@H]1CC[C@@H](c2ccccc2)CC1 [Compound A, methyl (2R,3S)-3-((methylsulfonyl)amino)-2-(((cis-4-phenylcyclohexyl)oxy)methyl)piperidine-1-carboxylate]
concentration at 2 hr [1]: 33.7 ng/mL
concentration at 2 hr [2]: 45.5 ng/mL
concentration at 2 h [3]: 57.8 ng/mL
concentration at 3 h [4]: 65.2 ng/mL
concentration at 3 hr [5]: 55 ng/mL
concentration at 3 h [6]: 59.3 ng/mL
concentration at 3 hr [1]: 35.6 ng/mL
concentration at 3 hr [2]: 51.3 ng/mL
concentration at 3 h [3]: 63.7 ng/mL
concentration at 4 hr [4]: 63.1 ng/mL
concentration at 4 h [5]: 55 ng/mL
concentration at 4 hr [6]: 54.5 ng/mL
concentration at 4 hr [1]: 44.4 ng/mL
concentration at 4 hr [2]: 54.2 ng/mL
concentration at 4 hr [3]: 58.8 ng/mL
concentration at 6 hr [4]: 51.7 ng/mL
concentration at 6 hr [5]: 46.8 ng/mL
concentration at 6 hr [6]: 48 ng/mL
concentration at 6 hr [1]: 40.2 ng/mL
concentration at 6 hr [2]: 45.4 ng/mL
concentration at 6 hr [3]: 48.8 ng/mL
concentration at 8 hr [4]: 58.8 ng/mL
concentration at 8 hr [5]: 48.7 ng/mL
concentration at 8 hr [6]: 51.7 ng/mL
concentration at 8 hr [1]: 37.1 ng/mL
concentration at 8 hr [2]: 43.3 ng/mL
concentration at 8 hr [3]: 52.5 ng/mL
concentration at 9 hr [4]: 58.3 ng/mL
concentration at 9 hr [5]: 52.5 ng/mL
concentration at 9 hr [6]: 55.3 ng/mL
concentration at 9 hr [1]: 40.6 ng/mL
concentration at 9 hr [2]: 51 ng/mL
concentration at 9 hr [3]: 57.4 ng/mL
concentration at 0.5 h [7]: 80.3 ng/mL
concentration at 0.5 h [8]: 71.2 ng/mL
concentration at 0.5 h [9]: 70.7 ng/mL
concentration at 0.5 h [10]: 64.4 ng/mL
concentration at 0.5 h [11]: 65 ng/mL
concentration at 0.5 h [12]: 75.9 ng/mL
concentration at 1 h [7]: 91.5 ng/mL
concentration at 1 h [8]: 81.2 ng/mL
concentration at 1 h [9]: 79 ng/mL
concentration at 1 h [10]: 74.8 ng/mL
concentration at 1 h [11]: 76.2 ng/mL
concentration at 1 h [12]: 86.3 ng/mL
concentration at 1.5 h [7]: 116 ng/mL
concentration at 1.5 h [8]: 92.8 ng/mL
concentration at 1.5 h [9]: 90.2 ng/mL
concentration at 1.5 h [10]: 75.5 ng/mL
concentration at 1.5 h [11]: 88.8 ng/mL
concentration at 1.5 h [12]: 96.1 ng/mL
concentration at 2 h [7]: 114 ng/mL
concentration at 2 h [8]: 99.5 ng/mL
concentration at 2 h [9]: 99 ng/mL
concentration at 2 h [10]: 86.5 ng/mL
concentration at 2 h [11]: 88.8 ng/mL
concentration at 2 h [12]: 110 ng/mL
concentration at 3 h [7]: 133 ng/mL
concentration at 3 h [8]: 114 ng/mL
concentration at 3 h [9]: 112 ng/mL
concentration at 3 h [10]: 98.3 ng/mL
concentration at 3 h [11]: 98.6 ng/mL
concentration at 3 h [12]: 131 ng/mL
concentration at 4 h [7]: 144 ng/mL
concentration at 4 hr [8]: 118 ng/mL
concentration at 4 h [9]: 113 ng/mL
concentration at 4 hr [10]: 107 ng/mL
concentration at 4 hr [11]: 109 ng/mL
concentration at 4 h [12]: 120 ng/mL
concentration at 6 h [7]: 119 ng/mL
concentration at 6 hr [8]: 91.8 ng/mL
concentration at 6 h [9]: 90.8 ng/mL
concentration at 6 hr [10]: 73.5 ng/mL
concentration at 6 h [11]: 73.8 ng/mL
concentration at 6 h [12]: 103 ng/mL
concentration at 8 h [7]: 133 ng/mL
concentration at 8 hr [8]: 102 ng/mL
concentration at 8 h [9]: 99.7 ng/mL
concentration at 8 hr [10]: 84.9 ng/mL
concentration at 8 h [11]: 87.2 ng/mL
concentration at 8 h [12]: 108 ng/mL
concentration at 9 h [7]: 138 ng/mL
concentration at 9 hr [8]: 115 ng/mL
concentration at 9 h [9]: 112 ng/mL
concentration at 9 hr [10]: 102 ng/mL
concentration at 9 h [11]: 104 ng/mL
concentration at 9 h [12]: 122 ng/mL
concentration at 0.5 h [13]: 174 ng/mL
concentration at 0.5 h [14]: 132 ng/mL
concentration at 0.5 h [15]: 122 ng/mL
concentration at 0.5 h [16]: 108 ng/mL
concentration at 0.5 h [17]: 119 ng/mL
concentration at 0.5 h [18]: 149 ng/mL
concentration at 1 h [13]: 172 ng/mL
concentration at 1 h [14]: 154 ng/mL
concentration at 1 h [15]: 162 ng/mL
concentration at 1 h [16]: 126 ng/mL
concentration at 1 h [17]: 131 ng/mL
concentration at 1 h [18]: 169 ng/mL
concentration at 1.5 h [13]: 255 ng/mL
concentration at 1.5 h [14]: 194 ng/mL
